From ChEMBL document CHEMBL3271954, “Antitumor agents. 25. Synthesis and antitumor activity of uracil and thymine alpha-methylene-gamma-lactones and related derivatives” (1977)
Calls of active or inactive are those of the source. The calls are words filed in the database; no cut-off is given here.

How the values were obtained:
Assay type in all cases: functional
Settings in all cases: for T/C: route intraperitoneal
P388 = test: Antitumor activity against mouse P388 cells allografted in DBA/2 mouse at 25 mg/kg/day, ip administered for 2 weeks relative to control
B16 = test: Antitumor activity against mouse B16 cells allografted in C57Bl/6 mouse at 25 mg/kg/day, ip administered for 2 weeks relative to control
W256 = test: Antitumor activity against rat Walker 256 cells allografted in Sprague-Dawley rat at 2.5 mg/kg/day, ip relative to control

SMILES | T/C (P388) | T/C (B16) | T/C (W256) | Activity (P388) | Activity (B16) | Activity (W256)
C=C1C(=O)O[C@H]2[C@H]1[C@H](OC(=O)/C(C)=C/CO)C/C(C)=C/CC[C@@]1(CO)O[C@H]21 | 147% | 111% | 330% | – | – | –
O=c1[nH]cc(F)c(=O)[nH]1 [FLUOROURACIL] | 186% | 164% | – | – | – | –
C=C1CC(C)(Cn2cc(COC(=O)/C=C/c3ccccc3)c(=O)[nH]c2=O)OC1=O (configuration not stated) | 130% | 141% | 211% | – | – | –
C=C1CC(C)(Cn2cc(C)c(=O)[nH]c2=O)OC1=O (configuration not stated) | 127% | 123% | 127% | – | – | –
C=C1CC(C)(Cn2cc(COC(=O)c3cc(OC)c(OC)c(OC)c3)c(=O)[nH]c2=O)OC1=O (configuration not stated) | 142% | 129% | 209% | – | – | –
N[C@@H](Cc1ccc(N(CCCl)CCCl)cc1)C(=O)O [MELPHALAN] | – | – | 317% | – | – | –
C=C1CC(C)(Cn2ccc(=O)[nH]c2=O)OC1=O (configuration not stated) | 115% | 111% | 131% | – | – | –
O=c1cc[nH]c(=O)[nH]1 | – | – | – | inactive | inactive | inactive
Cc1c[nH]c(=O)[nH]c1=O | – | – | – | inactive | inactive | inactive
C=C1C(=O)O[C@H]2/C=C(/C)[C@H](CO)C/C=C(\C)C[C@@H](OC(=O)/C(=C/CO)CO)[C@@H]12 [EUPAFORMOSANIN] | 147% | 113% | 471% | – | – | –
